Measured values: patent publication US8436205B2, “Tetrahydronaphthalene compounds” (Actelion Pharmaceuticals Ltd., priority 2008, dated 2013)
pEC50, pIC50: −log10 of the molar value.

Columns and labels:
[1] = test system: human Cav3.1 Cav3.2 or Cav3.3 channel; assay: In vitro assay T channel (FLIPR, Ca2+-induced calcium fluorescence); type: cell-based; conditions: HEK293 cells; 10 mM Ca2+; geometric mean from n values; read-out: T channel antagonistic activity IC50
Procedure: The T channel antagonistic activity (IC50 values) of the compounds of formula (I) is determined in accordance with the following experimental method and data are shown in Table 1.
Human embryonic kidney (HEK293) cells expressing the human Cav3.1 Cav3.2 or Cav3.3 channel, respectively, are grown in culture medium (DMEM containing 10% heat-inactivated fetal calf serum (FCS), 100 U/ml penicillin, 100 μg/ml streptomycin and 1 mg/ml G418). The cells are seeded at 20.000 cells/well into 384-well black clear bottom sterile plates (poly-L-lysine-coated, Becton Dickinson). The seeded plates are incubated overnight at 37° C. in 5% CO2. The Ca^2+ solution is prepared as 100 mM stock solution in 100 mM tetraethylammoniumchloride (TEA-chloride), 50 mM HEPES, 2.5 mM CaCl2, 5 mM KCl, 1 mM MgCl2, adjusted to pH 7.2 with TEA-hydroxide, for use in the assay at a final concentration of 10 mM. Antagonists are prepared as 10 mM stock solutions in DMSO, then diluted in 384 w plates first in DMSO, then in 100 mM TEA-chloride, 50 mM HEPES, 2.5 mM CaCl2, 5 mM KCl, 1 mM MgCl2, adjusted to pH 7.2 with TEA-hydroxide, to obtain 9× stocks. On the day of the assay, 25 μl of staining buffer (HBSS containing 20 mM HEPES, 0.375 g/l NaHCO3 and 3 μM of the fluorescent calcium indicator fluo-4 AM (1 mM stock solution in DMSO, containing 10% pluronic) is added to each well of the seeded plate. The 384-well cell-plates are incubated for 60 min at 37° C. in 5% CO2 followed by washing with 2×50 μl per well using HBSS containing 0.1% BSA, 20 mM HEPES, 0.375 g/l NaHCO3, leaving 50 […] of this buffer for equilibration at room temperature (30-60 min). Within the Fluorescent Imaging Plate Reader (FLIPR, Molecular Devices), antagonists are added to the plate in a volume of 6.25 Owen, incubated for 3 min, and finally 6.25 […] of Ca^2+ solution is added. Fluorescence is measured for each well at 2 second intervals for 8 minutes, and the area under the curve of each fluorescence peak is compared to the area of the fluorescence peak induced by 10 mM Ca^2+ with vehicle in place of antagonist. For each antagonist, the 1050 value (the concentration (in nM) of compound needed to inhibit 50% of the Ca^2+-induced fluorescence response) up to 10 μM is determined. The calculated IC50 values of the compounds may fluctuate depending on the daily cellular assay performance. Fluctuations of this kind are known to those skilled in the art.

[2] = test system: isolated mouse hearts; assay: Effect on isolated hearts according to the Langendorff method (Lgdff)
Procedure: The compounds were tested for their potential to reduce blood pressure and their effect on the contractility of the heart muscle. EC50 values on isolated mouse hearts were determined according to Literature (Doring H J., The isolated perfused heart according to Langendorff technique—function—application, Physiol. Bohemoslov. 1990, 39(6), 481-504; Kligfield P, Horner H, Brachfeld N., A model of graded ischemia in the isolated perfused rat heart, J. Appl. Physiol. 1976 June, 40(6), 1004-8).
7 example compounds have been measured using the procedure described above for the Langendorff experiment. The measured EC50 values were in the range of 7 to 29 nM with an average of 13 nM.

SMILES	pIC50 [1]	pEC50 [2]
COCC(C)(COC)CN(CCCN(C)CC[C@@]1(O)CCc2cc(F)ccc2[C@@H]1C(C)C)CC(F)F [Example 5, (1S,2S)-2-[2-({3-[(2,2-Difluoro-ethyl)-(3-methoxy-2-methoxymethyl-2-methyl-propyl)-amino]-propyl}methyl-amino)-ethyl]-6-fluoro-1-isopropyl-1,2,3,4-tetrahydro-naphthalen-2-ol]	5.43	–
COCC(C)(COC)CN(CCCN(C)CC[C@@]1(OC(=O)C(C)C)CCc2cc(F)ccc2[C@@H]1C(C)C)CC(F)F [Example 6, Isobutyric acid (1S,2S)-2-[2-({3-[(2,2-difluoro-ethyl)-(3-methoxy-2-methoxymethyl-2-methyl-propyl)-amino]-propyl}-methyl-amino)-ethyl]-6-fluoro-1-isopropyl-1,2,3,4-tetrahydro-naphthalen-2-yl ester]	5.10	8.05
COCC(C)(COC)CN(CCF)CCCN(C)CC[C@@]1(OC(=O)CF)CCc2cc(F)ccc2[C@@H]1C(C)C [Example 4, Fluoro-acetic acid (1S,2S)-6-fluoro-2-[2-({3-[(2-fluoro-ethyl)-(3-methoxy-2-methoxymethyl-2-methyl-propyl)-amino]-propyl}-methyl-amino)-ethyl]-1-isopropyl-1,2,3,4-tetrahydro-naphthalen-2-yl ester]	5.40	–
COCC(C)(COC)CN(CCCN(C)CC[C@@]1(OC(=O)CC(F)(F)F)CCc2cc(F)ccc2[C@@H]1C(C)C)CC(F)(F)F [Example 10, 3,3,3-Trifluoro-propionic acid (1S,2S)-6-fluoro-1-isopropyl-2-[2-({3-[(3-methoxy-2-methoxymethyl-2-methyl-propyl)-(2,2,2-trifluoro-ethyl)-amino]-propyl}-methyl-amino)-ethyl]-1,2,3,4-tetrahydro-naphthalen-2-yl ester]	< 5.00	8.05
COCC(C)(COC)CN(CCCN(C)CC[C@@]1(OC(=O)CC(F)(F)F)CCc2cc(F)ccc2[C@@H]1C(C)C)CC(F)F [Example 7, 3,3,3-Trifluoro-propionic acid (1S,2S)-2-[2-({3-[(2,2-difluoro-ethyl)-(3-methoxy-2-methoxymethyl-2-methyl-propyl)-amino]-propyl}-methyl-amino)-ethyl]-6-fluoro-1-isopropyl-1,2,3,4-tetrahydro-naphthalen-2-yl ester]	5.20	–
COCC(C)(COC)CN(CCF)CCCN(C)CC[C@@]1(OC(=O)CC(F)(F)F)CCc2cc(F)ccc2[C@@H]1C(C)C [Example 3, 3,3,3-Trifluoro-propionic acid (1S,2S)-6-fluoro-2-[2-({3-[(2-fluoro-ethyl)-(3-methoxy-2-methoxymethyl-2-methyl-propyl)-amino]-propyl}-methyl-amino)-ethyl]-1-isopropyl-1,2,3,4-tetrahydro-naphthalen-2-yl ester]	5.27	8.15

The next compounds have a higher pIC50 [1] than those just listed; values first:

pIC50 [1]	pEC50 [2]	SMILES
5.77	–	COCC(C)(COC)CN(CCCN(C)CC[C@@]1(OC(=O)C(C)C)CCc2cc(F)ccc2[C@@H]1C(C)C)CC(F)(F)F [Example 9, Isobutyric acid (1S,2S)-6-fluoro-1-isopropyl-2-[2-({3-[(3-methoxy-2-methoxymethyl-2-methyl-propyl)-(2,2,2-trifluoro-ethyl)-amino]-propyl}-methyl-amino)-ethyl]-1,2,3,4-tetrahydro-naphthalen-2-yl ester]
5.54	–	COCC(C)(COC)CN(CCCN(C)CC[C@@]1(O)CCc2cc(F)ccc2[C@@H]1C(C)C)CC(F)(F)F [Example 8, (1S,2S)-6-Fluoro-1-isopropyl-2-[2-({3-[(3-methoxy-2-methoxymethyl-2-methyl-propyl)-(2,2,2-trifluoro-ethyl)-amino]-propyl}-methyl-amino)-ethyl]-1,2,3,4-tetrahydro-naphthalen-2-ol]
5.50	–	COCC(C)(COC)CN(CCF)CCCN(C)CC[C@@]1(OC(=O)C(C)C)CCc2cc(F)ccc2[C@@H]1C(C)C [Example 2, Isobutyric acid (1S,2S)-6-fluoro-2-[2-({3-[(2-fluoro-ethyl)-(3-methoxy-2-methoxymethyl-2-methyl-propyl)-amino]-propyl}-methyl-amino)-ethyl]-1-isopropyl-1,2,3,4-tetrahydro-naphthalen-2-yl ester]
5.49	–	COCC(C)(COC)CN(CCF)CCCN(C)CC[C@@]1(O)CCc2cc(F)ccc2[C@@H]1C(C)C [Example 1, (1S,2S)-6-Fluoro-2-[2-({3-[(2-fluoro-ethyl)-(3-methoxy-2-methoxymethyl-2-methyl-propyl)-amino]-propyl}-methyl-amino)-ethyl]-1-isopropyl-1,2,3,4-tetrahydro-naphthalen-2-ol]
